Experimental data published in US12157717B2, “Compounds for the treatment of bovine or swine respiratory disease” (Intervet Inc., priority 2018, dated 2024).
Values after ≈ are worked out from the molar mass of the structure shown.

tested on: Mannheimia haemolytica MH 6357 (M7/2); assay: MIC, broth-microdilution (CLSI), strain MH 6357; assay type: cell-based; details: Mannheimia haemolytica M7/2, reference strain (cattle infection strain)
Experimental: (§1) The Minimum inhibitory concentrations (MIC) of compounds according to the invention for a number of veterinary bacterial pathogens were determined by the broth-microdilution method according to CLSI document VETO 1-A4.
(§2) Microdilution trays containing a doubling dilution series of the test compound were used for the tests. The MIC results were interpreted according to the CLSI documents VET01-S3. The lowest concentration of compound at which no visible growth (i.e. no turbidity) detected by the unaided eye was recorded as the MIC.

Row | Compound | MIC MH 6357
1 | CNC(=O)C(NC(=O)c1ccc(C#Cc2ccc(CNCc3ccccn3)cc2)cc1)C(=O)NO (centres unmarked) [Compound 13] | 0.8 µM (≈ 0.377 µg/mL)
2 | CNC(=O)C(C(=O)NO)N(C)C(=O)c1ccc(C#Cc2ccc(CN3CCCC3)cc2)cc1 (centres unmarked) [Compound 25] | 6.3 µM (≈ 2.83 µg/mL)
3 | CNC(=O)C(NC(=O)c1ccc(C#Cc2ccc(CNCc3cccnc3)cc2)cc1)C(=O)NO (centres unmarked) [Compound 11] | 0.4 µM (≈ 0.189 µg/mL)
4 | CNC(=O)C(C(=O)NO)N(C)C(=O)c1ccc(C#Cc2ccc(CNCc3ccccc3)cc2)cc1 (centres unmarked) [Compound 23] | 1.6 µM (≈ 0.775 µg/mL)
5 | CCCNCc1ccc(C#Cc2ccc(C(=O)N(C)C(C(=O)NC)C(=O)NO)cc2)cc1 (centres unmarked) [Compound 27] | 6.3 µM (≈ 2.75 µg/mL)

tested on: Mannheimia haemolytica MH 6374 (ATCC 33396); assay: MIC, broth-microdilution (CLSI), strain MH 6374; assay type: cell-based; details: Mannheimia haemolytica ATCC 33396, reference strain
Experimental: as §1, §2

Row | Compound | MIC MH 6374
6 | CNC(=O)C(NC(=O)c1ccc(C#Cc2ccc(CNCc3ccccn3)cc2)cc1)C(=O)NO (centres unmarked) [Compound 13] | 0.8 µM (≈ 0.377 µg/mL)
7 | CNC(=O)C(C(=O)NO)N(C)C(=O)c1ccc(C#Cc2ccc(CN3CCCC3)cc2)cc1 (centres unmarked) [Compound 25] | 6.3 µM (≈ 2.83 µg/mL)
8 | CNC(=O)C(NC(=O)c1ccc(C#Cc2ccc(CNCc3cccnc3)cc2)cc1)C(=O)NO (centres unmarked) [Compound 11] | 0.8 µM (≈ 0.377 µg/mL)
9 | CNC(=O)C(C(=O)NO)N(C)C(=O)c1ccc(C#Cc2ccc(CNCc3ccccc3)cc2)cc1 (centres unmarked) [Compound 23] | 0.8 µM (≈ 0.388 µg/mL)
10 | CCCNCc1ccc(C#Cc2ccc(C(=O)N(C)C(C(=O)NC)C(=O)NO)cc2)cc1 (centres unmarked) [Compound 27] | 6.3 µM (≈ 2.75 µg/mL)

tested on: Mannheimia haemolytica MH 10720 (154); assay: MIC, broth-microdilution (CLSI), strain MH 10720; assay type: cell-based; details: Mannheimia haemolytica 154, BRD field isolate
Experimental: as §1, §2

Row | Compound | MIC MH 10720
11 | CNC(=O)C(NC(=O)c1ccc(C#Cc2ccc(CNCc3ccccn3)cc2)cc1)C(=O)NO (centres unmarked) [Compound 13] | 0.2 µM (≈ 0.0943 µg/mL)
12 | CNC(=O)C(C(=O)NO)N(C)C(=O)c1ccc(C#Cc2ccc(CN3CCCC3)cc2)cc1 (centres unmarked) [Compound 25] | 3.1 µM (≈ 1.39 µg/mL)
13 | CNC(=O)C(NC(=O)c1ccc(C#Cc2ccc(CNCc3cccnc3)cc2)cc1)C(=O)NO (centres unmarked) [Compound 11] | 0.2 µM (≈ 0.0943 µg/mL)
14 | CNC(=O)C(C(=O)NO)N(C)C(=O)c1ccc(C#Cc2ccc(CNCc3ccccc3)cc2)cc1 (centres unmarked) [Compound 23] | 0.4 µM (≈ 0.194 µg/mL)
15 | CCCNCc1ccc(C#Cc2ccc(C(=O)N(C)C(C(=O)NC)C(=O)NO)cc2)cc1 (centres unmarked) [Compound 27] | 1.6 µM (≈ 0.698 µg/mL)

tested on: Mannheimia haemolytica MH 12587 (1071), macrolide-resistance: erm+, E+; assay: MIC, broth-microdilution (CLSI), strain MH 12587; assay type: cell-based; details: Mannheimia haemolytica 1071, BRD field isolate
Experimental: as §1, §2

Row | Compound | MIC MH 12587
16 | CNC(=O)C(NC(=O)c1ccc(C#Cc2ccc(CNCc3ccccn3)cc2)cc1)C(=O)NO (centres unmarked) [Compound 13] | 1.6 µM (≈ 0.754 µg/mL)
17 | CNC(=O)C(C(=O)NO)N(C)C(=O)c1ccc(C#Cc2ccc(CN3CCCC3)cc2)cc1 (centres unmarked) [Compound 25] | 12.5 µM (≈ 5.61 µg/mL)
18 | CNC(=O)C(NC(=O)c1ccc(C#Cc2ccc(CNCc3cccnc3)cc2)cc1)C(=O)NO (centres unmarked) [Compound 11] | 0.8 µM (≈ 0.377 µg/mL)
19 | CNC(=O)C(C(=O)NO)N(C)C(=O)c1ccc(C#Cc2ccc(CNCc3ccccc3)cc2)cc1 (centres unmarked) [Compound 23] | 3.1 µM (≈ 1.5 µg/mL)
20 | CCCNCc1ccc(C#Cc2ccc(C(=O)N(C)C(C(=O)NC)C(=O)NO)cc2)cc1 (centres unmarked) [Compound 27] | 12.5 µM (≈ 5.46 µg/mL)

tested on: Mannheimia haemolytica MH 13065 (XB0446-6003.9); assay: MIC, broth-microdilution (CLSI), strain MH 13065; assay type: cell-based; details: Mannheimia haemolytica XB0446-6003.9, BRD field isolate
Experimental: as §1, §2

Row | Compound | MIC MH 13065
21 | CNC(=O)C(NC(=O)c1ccc(C#Cc2ccc(CNCc3ccccn3)cc2)cc1)C(=O)NO (centres unmarked) [Compound 13] | 1.6 µM (≈ 0.754 µg/mL)
22 | CNC(=O)C(C(=O)NO)N(C)C(=O)c1ccc(C#Cc2ccc(CN3CCCC3)cc2)cc1 (centres unmarked) [Compound 25] | 6.3 µM (≈ 2.83 µg/mL)
23 | CNC(=O)C(NC(=O)c1ccc(C#Cc2ccc(CNCc3cccnc3)cc2)cc1)C(=O)NO (centres unmarked) [Compound 11] | 0.8 µM (≈ 0.377 µg/mL)
24 | CNC(=O)C(C(=O)NO)N(C)C(=O)c1ccc(C#Cc2ccc(CNCc3ccccc3)cc2)cc1 (centres unmarked) [Compound 23] | 1.6 µM (≈ 0.775 µg/mL)
25 | CCCNCc1ccc(C#Cc2ccc(C(=O)N(C)C(C(=O)NC)C(=O)NO)cc2)cc1 (centres unmarked) [Compound 27] | 6.3 µM (≈ 2.75 µg/mL)

tested on: Mannheimia haemolytica MH 13093 (XB0472-6014.1); assay: MIC, broth-microdilution (CLSI), strain MH 13093; assay type: cell-based; details: Mannheimia haemolytica XB0472-6014.1, BRD field isolate
Experimental: as §1, §2

Row | Compound | MIC MH 13093
26 | CNC(=O)C(NC(=O)c1ccc(C#Cc2ccc(CNCc3ccccn3)cc2)cc1)C(=O)NO (centres unmarked) [Compound 13] | 0.8 µM (≈ 0.377 µg/mL)
27 | CNC(=O)C(C(=O)NO)N(C)C(=O)c1ccc(C#Cc2ccc(CN3CCCC3)cc2)cc1 (centres unmarked) [Compound 25] | 12.5 µM (≈ 5.61 µg/mL)
28 | CNC(=O)C(NC(=O)c1ccc(C#Cc2ccc(CNCc3cccnc3)cc2)cc1)C(=O)NO (centres unmarked) [Compound 11] | 1.6 µM (≈ 0.754 µg/mL)
29 | CNC(=O)C(C(=O)NO)N(C)C(=O)c1ccc(C#Cc2ccc(CNCc3ccccc3)cc2)cc1 (centres unmarked) [Compound 23] | 1.6 µM (≈ 0.775 µg/mL)
30 | CCCNCc1ccc(C#Cc2ccc(C(=O)N(C)C(C(=O)NC)C(=O)NO)cc2)cc1 (centres unmarked) [Compound 27] | 12.5 µM (≈ 5.46 µg/mL)

tested on: Pasteurella multocida PM 6267 (P 2225 (L386)); assay: MIC, broth-microdilution (CLSI), strain PM 6267; assay type: cell-based; details: Pasteurella multocida P 2225 (L386), reference strain (mouse infection strain)
Experimental: as §1, §2

Row | Compound | MIC PM 6267
31 | CNC(=O)C(NC(=O)c1ccc(C#Cc2ccc(CNCc3ccccn3)cc2)cc1)C(=O)NO (centres unmarked) [Compound 13] | ≤0.1 µM
32 | CNC(=O)C(C(=O)NO)N(C)C(=O)c1ccc(C#Cc2ccc(CN3CCCC3)cc2)cc1 (centres unmarked) [Compound 25] | 1.6 µM (≈ 0.718 µg/mL)
33 | CNC(=O)C(NC(=O)c1ccc(C#Cc2ccc(CNCc3cccnc3)cc2)cc1)C(=O)NO (centres unmarked) [Compound 11] | ≤0.1 µM
34 | CNC(=O)C(C(=O)NO)N(C)C(=O)c1ccc(C#Cc2ccc(CNCc3ccccc3)cc2)cc1 (centres unmarked) [Compound 23] | 0.4 µM (≈ 0.194 µg/mL)
35 | CCCNCc1ccc(C#Cc2ccc(C(=O)N(C)C(C(=O)NC)C(=O)NO)cc2)cc1 (centres unmarked) [Compound 27] | 0.2 µM (≈ 0.0873 µg/mL)

tested on: Pasteurella multocida PM 6391 (ATCC 43137); assay: MIC, broth-microdilution (CLSI), strain PM 6391; assay type: cell-based; details: Pasteurella multocida ATCC 43137, reference strain
Experimental: as §1, §2

Row | Compound | MIC PM 6391
36 | CNC(=O)C(NC(=O)c1ccc(C#Cc2ccc(CNCc3ccccn3)cc2)cc1)C(=O)NO (centres unmarked) [Compound 13] | 0.2 µM (≈ 0.0943 µg/mL)
37 | CNC(=O)C(C(=O)NO)N(C)C(=O)c1ccc(C#Cc2ccc(CN3CCCC3)cc2)cc1 (centres unmarked) [Compound 25] | 3.1 µM (≈ 1.39 µg/mL)
38 | CNC(=O)C(NC(=O)c1ccc(C#Cc2ccc(CNCc3cccnc3)cc2)cc1)C(=O)NO (centres unmarked) [Compound 11] | 0.2 µM (≈ 0.0943 µg/mL)
39 | CNC(=O)C(C(=O)NO)N(C)C(=O)c1ccc(C#Cc2ccc(CNCc3ccccc3)cc2)cc1 (centres unmarked) [Compound 23] | 1.6 µM (≈ 0.775 µg/mL)
40 | CCCNCc1ccc(C#Cc2ccc(C(=O)N(C)C(C(=O)NC)C(=O)NO)cc2)cc1 (centres unmarked) [Compound 27] | 3.1 µM (≈ 1.35 µg/mL)

tested on: Pasteurella multocida PM 10775 (080130003051); assay: MIC, broth-microdilution (CLSI), strain PM 10775; assay type: cell-based; details: Pasteurella multocida 080130003051, BRD field isolate
Experimental: as §1, §2

Row | Compound | MIC PM 10775
41 | CNC(=O)C(NC(=O)c1ccc(C#Cc2ccc(CNCc3ccccn3)cc2)cc1)C(=O)NO (centres unmarked) [Compound 13] | ≤0.1 µM
42 | CNC(=O)C(C(=O)NO)N(C)C(=O)c1ccc(C#Cc2ccc(CN3CCCC3)cc2)cc1 (centres unmarked) [Compound 25] | 0.4 µM (≈ 0.179 µg/mL)
43 | CNC(=O)C(NC(=O)c1ccc(C#Cc2ccc(CNCc3cccnc3)cc2)cc1)C(=O)NO (centres unmarked) [Compound 11] | ≤0.1 µM
44 | CNC(=O)C(C(=O)NO)N(C)C(=O)c1ccc(C#Cc2ccc(CNCc3ccccc3)cc2)cc1 (centres unmarked) [Compound 23] | ≤0.1 µM
45 | CCCNCc1ccc(C#Cc2ccc(C(=O)N(C)C(C(=O)NC)C(=O)NO)cc2)cc1 (centres unmarked) [Compound 27] | 0.4 µM (≈ 0.175 µg/mL)

tested on: Pasteurella multocida PM 12080 (IV102277-0093); assay: MIC, broth-microdilution (CLSI), strain PM 12080; assay type: cell-based; details: Pasteurella multocida IV102277-0093, BRD field isolate
Experimental: as §1, §2

Row | Compound | MIC PM 12080
46 | CNC(=O)C(NC(=O)c1ccc(C#Cc2ccc(CNCc3ccccn3)cc2)cc1)C(=O)NO (centres unmarked) [Compound 13] | ≤0.1 µM
47 | CNC(=O)C(C(=O)NO)N(C)C(=O)c1ccc(C#Cc2ccc(CN3CCCC3)cc2)cc1 (centres unmarked) [Compound 25] | 1.6 µM (≈ 0.718 µg/mL)
48 | CNC(=O)C(NC(=O)c1ccc(C#Cc2ccc(CNCc3cccnc3)cc2)cc1)C(=O)NO (centres unmarked) [Compound 11] | ≤0.1 µM
49 | CNC(=O)C(C(=O)NO)N(C)C(=O)c1ccc(C#Cc2ccc(CNCc3ccccc3)cc2)cc1 (centres unmarked) [Compound 23] | 0.8 µM (≈ 0.388 µg/mL)
50 | CCCNCc1ccc(C#Cc2ccc(C(=O)N(C)C(C(=O)NC)C(=O)NO)cc2)cc1 (centres unmarked) [Compound 27] | 1.6 µM (≈ 0.698 µg/mL)
